According to patent publication US20090275570A1, “SUBSTITUTED HETEROCYCLES AND THEIR USE AS CHK1, PDK1 AND PAK INHIBITORS” (ASTRAZENECA AB, priority 2005, published 2009):
Like-named read-outs stand apart in the source and are kept apart here.

Experiments:
Assay type in all cases: biochemical
Pak1 = biological target: T1, Pak1 (Homo sapiens, UniProt Q13153); experiment: In Vitro Pak1 Enzyme Assay (SPA); conditions: read-out: IC50 value in the Pak 1 enzyme assay
T1 construct: The full-length Pak1 protein is expressed in E. coli as a GST fusion; GST; made in house; host or cells: E. coli
T1 sequence (Q13153 whole entry, the tested form may be a part): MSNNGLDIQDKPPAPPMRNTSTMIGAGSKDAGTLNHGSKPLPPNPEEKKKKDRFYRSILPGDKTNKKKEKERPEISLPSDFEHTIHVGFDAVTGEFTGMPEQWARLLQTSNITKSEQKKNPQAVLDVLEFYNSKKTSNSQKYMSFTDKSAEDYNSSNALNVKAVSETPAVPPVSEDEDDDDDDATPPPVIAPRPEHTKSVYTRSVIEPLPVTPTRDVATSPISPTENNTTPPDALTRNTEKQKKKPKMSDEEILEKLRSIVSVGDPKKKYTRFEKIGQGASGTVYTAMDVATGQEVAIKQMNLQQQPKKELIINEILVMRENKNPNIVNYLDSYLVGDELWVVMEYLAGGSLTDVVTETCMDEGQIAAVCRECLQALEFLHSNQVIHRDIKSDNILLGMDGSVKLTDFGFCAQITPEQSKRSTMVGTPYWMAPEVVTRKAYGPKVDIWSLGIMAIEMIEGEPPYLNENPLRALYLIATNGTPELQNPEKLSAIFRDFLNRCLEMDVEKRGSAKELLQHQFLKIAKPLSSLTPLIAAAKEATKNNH
Protocol: (§1) The assay used Scintillation Proximity Assay (SPA) technology (Antonsson et al., Analytical Biochemistry, 1999, 267: 294-299) to determine the ability of test compounds to inhibit phosphorylation by recombinant Pak1. The full-length Pak1 protein is expressed in E. coli as a GST fusion and purified using the GST tag using standard purification techniques.
(§2) Test compounds were prepared as 10 mM stock solutions in DMSO and diluted into water as required to give a range of final assay concentrations. Aliquots (5 μl) of each compound dilution were placed into a well of a Matrix 384-well flat bottom white polystyrene plate (Catalogue No. 4316). […]
(§3) Each reaction was stopped and the biotinylated peptide captured by the addition of 30 Ξl of a mixture of Streptavidin coated PVT SPA bead slurry (Amersham Biosciences, Catalogue No. RPQO205; 250 μg/well) in 50 mM Tris-HCl pH7.5 buffer containing 0.05% sodium azide followed by the addition of 30 μl of 2.83M Caesium chloride (final assay concentration of 1M). Plates are then left for 2 hours on the bench before being counted on a TopCount. […]
Pak1 enzyme inhibition for a given test compound was expressed as an IC50 value.

Pak4 = biological target: T2, Pak4 (Homo sapiens, UniProt O96013); experiment: In Vitro Pak4 Enzyme Assay (SPA); conditions: read-out: IC50 value in the Pak 4 enzyme assay
T2 construct: The kinase domain of Pak4 (amino acids 291 to 591) is expressed in E. coli as a GST fusion; GST; made in house; host or cells: E. coli
T2 sequence (O96013 291-591): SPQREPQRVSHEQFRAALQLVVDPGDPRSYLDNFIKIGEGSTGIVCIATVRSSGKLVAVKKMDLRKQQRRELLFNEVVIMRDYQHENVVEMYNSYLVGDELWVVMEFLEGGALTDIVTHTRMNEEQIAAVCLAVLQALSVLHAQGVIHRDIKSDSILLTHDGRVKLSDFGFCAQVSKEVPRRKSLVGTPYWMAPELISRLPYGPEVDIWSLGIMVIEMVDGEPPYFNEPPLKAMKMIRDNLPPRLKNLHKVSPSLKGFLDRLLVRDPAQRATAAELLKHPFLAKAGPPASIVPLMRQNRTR
Protocol: as §1, with “Pak4.” for “Pak1.”, “kinase domain of Pak4 (amino acids 291 to 591)” for “full-length Pak1 protein”
as §2
as §3, with “μl” for “Ξl”, “RPQ0205;” for “RPQO205;”
Pak4 enzyme inhibition for a given test compound was expressed as an IC50 value. […]

PDK1 = biological target: T3, PDK1 (Homo sapiens, UniProt O15530); experiment: PDK1 Enzyme Assay (Alphascreen)
T3 construct: 6His; made in house; host or cells: insect cells
T3 sequence (O15530 1-556): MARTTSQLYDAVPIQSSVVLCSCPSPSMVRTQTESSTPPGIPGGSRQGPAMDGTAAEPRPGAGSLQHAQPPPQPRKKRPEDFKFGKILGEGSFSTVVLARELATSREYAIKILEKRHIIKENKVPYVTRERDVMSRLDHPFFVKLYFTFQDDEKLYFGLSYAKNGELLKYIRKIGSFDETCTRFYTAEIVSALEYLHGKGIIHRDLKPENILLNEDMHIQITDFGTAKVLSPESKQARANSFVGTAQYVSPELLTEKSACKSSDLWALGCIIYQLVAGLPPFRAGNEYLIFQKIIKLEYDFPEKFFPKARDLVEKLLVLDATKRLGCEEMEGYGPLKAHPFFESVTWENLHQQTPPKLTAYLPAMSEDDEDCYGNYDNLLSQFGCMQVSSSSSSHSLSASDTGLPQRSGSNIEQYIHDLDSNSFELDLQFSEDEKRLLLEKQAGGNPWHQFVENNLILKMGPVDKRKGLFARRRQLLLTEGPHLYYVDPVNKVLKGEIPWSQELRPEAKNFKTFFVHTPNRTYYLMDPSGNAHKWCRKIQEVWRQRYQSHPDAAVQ
Protocol: The assay utilised Alphascreen technology (Ullman, E F, et al. Proc. Natl. Acad. Sci. USA, Vol. 91, pp. 5426-5430, 1994) to measure the ability of compounds to inhibit PDK1 enzyme activity. 6H is tagged PDK1 enzyme was expressed in insect cells and purified using NiNTA beads and conventional protein purification methodology.
Test compounds were prepared as 10 mM stock solutions in DMSO and diluted into water as required to give a range of final assay concentrations. 2 μl aliquots of compounds were dispensed into Greiner Bio-One low volume 384 well plates (Catalogue no. 784075). For the activity assay, to each well was added 5 μl of a mixture of 48 nM native peptide (Biotin-Ahx-[…]NH2, Bachem UK Ltd) and 12 μM adenosine triphosphate (ATP) in reaction buffer comprising Tris-HCl pH7.4 (60 mM), magnesium acetate (12 mM), EGTA (120 μM), DTT (1.2 mM) and bovine serum albumin (0.12 mg/ml). […]
Each reaction was stopped by addition of 5 μl of a solution containing Tris-HCl pH7.4 (50 mM), bovine serum albumin (1 mg/ml), EDTA (90 mM), anti-phospho Akt T308 antibody, R&D Systems, Catalogue no. […] Plates were then sealed and incubated overnight in low light conditions before being read on an Envision plate reader (Perkin Elmer). […]

CHK1 kinase = biological target: T4, CHK1 kinase (Homo sapiens, UniProt O14757); experiment: Checkpoint Kinase 1 Assay (SPA)
T4 construct: The kinase domain is expressed in baculovirus and purified by the GST tag; GST; made in house; host or cells: baculovirus system (insect cells implied)
T4 sequence (O14757 9-265 limits assumed): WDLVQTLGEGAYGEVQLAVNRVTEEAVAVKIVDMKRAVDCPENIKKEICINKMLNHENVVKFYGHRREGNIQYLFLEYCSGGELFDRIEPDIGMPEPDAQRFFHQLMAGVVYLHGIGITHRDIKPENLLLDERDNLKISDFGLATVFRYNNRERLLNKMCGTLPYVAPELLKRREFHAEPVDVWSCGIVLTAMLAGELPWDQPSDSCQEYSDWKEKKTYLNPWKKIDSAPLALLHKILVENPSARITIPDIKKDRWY
Protocol: Checkpoint Kinase 1 Assay: This in vitro assay measures the inhibition of CHK1 kinase by compounds. The kinase domain is expressed in baculovirus and purified by the GST tag. Purified protein and biotinylated peptide substrate (Cdc25C) is then used in a 384 well automated Scintillation Proximity Assay (SPA). Specifically, peptide, enzyme and reaction buffer are mixed and aliquoted into a 384 well plate containing dilution series of compounds and controls. Cold and hot ATP are then added to initiate the reaction. After 2 hours, a SPA bead slurry, […] and EDTA are added to stop the reaction and capture the biotinylated peptide. Plates are then counted on a Topcount. Data is analyzed and IC50s determined for individual compounds.

IC50 (Pak1) [nM]	IC50 (Pak4) [nM]	IC50 (PDK1) [nM]	IC50 (CHK1 kinase; read-out: IC50 value in the Checkpoint Kinase 1 assay) [nM]	SMILES	IC50 (CHK1 kinase) [nM]
730	140	350	–	NC(=O)c1cnc(N[C@H]2CCCNC2)c2cc(-c3cc(F)cc(F)c3)sc12 [Example 10, 2-(3,5-difluorophenyl)-4-[(3S)-piperidin-3-ylamino]thieno[3,2-c]pyridine-7-carboxamide]	–
600	100	160	–	NC(=O)c1cnc(N[C@H]2CCCNC2)c2cc(-c3ccc(Cl)cc3)sc12 [Example 14, 2-(4-chlorophenyl)-4-[(3S)-piperidin-3-ylamino]thieno[3,2-c]pyridine-7-carboxamide]	–
–	–	–	550	NCCNc1ncc(C(N)=O)c2sc(-c3ccccc3)cc12 [Example 16, 4-[(2-aminoethyl)amino]-2-phenylthieno[3,2-c]pyridine-7-carboxamide]	–
–	–	–	–	Cc1cc2c(N[C@H]3CCCNC3)ncc(C(N)=O)c2s1 [Example 157, 2-methyl-4-[(3S)-piperidin-3-ylamino]thieno[3,2-c]pyridine-7-carboxamide]	150
